Measured values: the supplement of paper PMC10307832

What was measured:
Experiment in all cases: relative viability (nuclei count vs DMSO), 5 days (fraction); higher = more cells survive
Selisistat + Pemetrexed = compound: C1CC(C2=C(C1)C3=C(N2)C=CC(=C3)Cl)C(=O)N [Selisistat] + Nc1nc2[nH]cc(CCc3ccc(C(=O)N[C@@H](CCC(=O)O)C(=O)O)cc3)c2c(=O)[nH]1 [Pemetrexed] (partner 0.2 µM)
Procedure, shortened: (§1)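 A single step with final 0.05% Triton X-100, 1% formaldehyde and 1 ug/ml Hoechst fixed the cells and stained nuclei 5 days after treatment. Lung cancer cell lines in 1536-well plates had been treated by pin tool the day after seeding with one drug alone or a fixed anchor-drug dose plus five library-drug doses (not always all listed) in √10 steps, and nuclei were counted on 4× images. Relative viability is the ratio of nuclei in treated wells to nuclei in vehicle wells, taken as the median of duplicate plates.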

Selisistat + Dasatinib = compound: C1CC(C2=C(C1)C3=C(N2)C=CC(=C3)Cl)C(=O)N [Selisistat] + Cc1nc(Nc2ncc(C(=O)Nc3c(C)cccc3Cl)s2)cc(N2CCN(CCO)CC2)n1 [Dasatinib] (partner 0.075 µM)
Procedure, shortened: as §1

Serdemetan + Lapatinib = compound: c1ccc2c(CCNc3ccc(Nc4ccncc4)cc3)c[nH]c2c1 [Serdemetan] + CS(=O)(=O)CCNCc1ccc(-c2ccc3ncnc(Nc4ccc(OCc5cccc(F)c5)c(Cl)c4)c3c2)o1 [Lapatinib] (partner 2 µM)
Procedure, shortened: as §1

Selisistat + Linsitinib = compound: C1CC(C2=C(C1)C3=C(N2)C=CC(=C3)Cl)C(=O)N [Selisistat] + C[C@]1(O)C[C@@H](c2nc(-c3ccc4ccc(-c5ccccc5)nc4c3)c3c(N)nccn32)C1 [Linsitinib] (partner 1 µM)
Procedure, shortened: as §1

| Cell Line | relative viability (Selisistat + Pemetrexed; first compound 0.4 µM) | relative viability (Selisistat + Pemetrexed; first compound 1.265 µM) | relative viability (Selisistat + Pemetrexed; first compound 4 µM) | relative viability (Selisistat + Pemetrexed; first compound 12.65 µM) | relative viability (Selisistat + Pemetrexed; first compound 40 µM) | relative viability (Selisistat + Dasatinib; first compound 0.4 µM) | relative viability (Selisistat + Dasatinib; first compound 1.265 µM) | relative viability (Selisistat + Dasatinib; first compound 4 µM) | relative viability (Selisistat + Dasatinib; first compound 12.65 µM) | relative viability (Selisistat + Dasatinib; first compound 40 µM) | relative viability (Serdemetan + Lapatinib; first compound 0.04 µM) | relative viability (Serdemetan + Lapatinib; first compound 0.1265 µM) | relative viability (Serdemetan + Lapatinib; first compound 0.4 µM) | relative viability (Serdemetan + Lapatinib; first compound 1.265 µM) | relative viability (Serdemetan + Lapatinib; first compound 4 µM) | relative viability (Selisistat + Linsitinib; first compound 0.4 µM) | relative viability (Selisistat + Linsitinib; first compound 1.265 µM) | relative viability (Selisistat + Linsitinib; first compound 4 µM) | relative viability (Selisistat + Linsitinib; first compound 12.65 µM) | relative viability (Selisistat + Linsitinib; first compound 40 µM) |
| --- | --- | --- | --- | --- | --- | --- | --- | --- | --- | --- | --- | --- | --- | --- | --- | --- | --- | --- | --- | --- |
| NCI-H2342 | 0.806 | 0.756 | 0.677 | 0.77 | 0.769 | 0.312 | 0.339 | 0.297 | 0.33 | 0.363 |  |  |  |  |  |  |  |  |  |  |
| SK-MES-1 | 1.01 | 0.957 | 0.917 | 0.828 | 1.01 | 0.451 | 0.294 | 0.293 | 0.346 | 0.264 | 0.416 | 0.503 | 0.466 | 0.381 | 0.387 | 1.11 | 1.04 | 0.955 | 1.05 | 1.01 |
| HCC-366 | 0.136 | 0.184 | 0.193 | 0.146 | 0.164 | 0.591 | 0.606 | 0.297 | 0.599 | 0.588 | 1.07 | 0.811 | 0.902 | 0.0523 | 0.0553 | 0.808 | 0.582 | 0.336 | 0.577 | 0.618 |
| 201T | 0.325 | 0.299 | 0.364 | 0.343 | 0.324 | 0.588 | 0.551 | 0.581 | 0.528 | 0.534 | 0.976 | 0.943 | 1.04 | 0.937 | 0.94 | 1.08 | 1.02 | 0.998 | 0.967 | 1.06 |
| HCC-827 | 0.258 | 0.266 | 0.266 | 0.256 | 0.251 | 0.393 | 0.38 | 0.306 | 0.421 | 0.301 | 0.168 | 0.178 |  | 0.188 | 0.173 | 0.873 | 0.873 | 0.941 | 0.948 | 1.01 |
| NCI-H647 | 0.165 | 0.203 | 0.193 | 0.174 | 0.178 | 0.229 | 0.186 | 0.176 | 0.154 | 0.218 | 1.06 | 1.11 | 1.1 | 0.669 | 0.475 | 1.15 | 1.12 |  | 1.07 | 1.26 |
| NCI-H2023 | 0.239 | 0.259 | 0.258 | 0.203 | 0.236 | 0.495 | 0.497 | 0.524 | 0.539 | 0.512 | 0.709 | 0.861 | 0.742 | 0.387 | 0.253 | 0.686 | 0.581 | 0.662 | 0.735 | 0.569 |
| NCI-H520 | 0.776 | 0.676 | 0.647 | 0.668 | 0.644 | 0.185 | 0.201 | 0.327 | 0.216 | 0.195 | 0.791 | 0.91 | 0.813 | 0.813 | 0.614 | 0.823 | 0.954 | 0.982 | 0.967 | 0.969 |
| RERF-LC-KJ | 0.482 | 0.466 | 0.467 | 0.466 | 0.468 | 1.04 | 0.813 | 0.818 | 0.625 | 0.568 | 0.757 | 0.811 | 0.826 | 0.8 | 0.754 | 0.969 | 0.878 | 0.937 | 0.88 | 0.775 |
| A-427 | 0.996 | 1.04 |  | 1.07 | 0.988 | 0.744 | 0.657 | 0.584 | 0.752 | 0.772 | 0.996 | 0.987 | 1.1 | 1.02 | 0.749 | 1.21 | 1.05 | 1.1 | 1.15 | 1.15 |
| NCI-H441 | 0.31 | 0.247 | 0.293 | 0.271 | 0.279 | 0.623 | 0.671 | 0.427 | 0.549 | 0.62 |  |  |  |  |  | 0.648 | 0.639 | 0.502 | 0.448 | 0.554 |
| NCI-H1703 |  |  |  |  |  |  |  |  |  |  | 1.38 | 1.05 | 1.07 | 1.09 | 0.885 | 0.316 | 0.703 | 0.627 | 0.724 | 0.932 |
| NCI-H1792 | 0.696 | 0.633 |  | 0.913 | 0.755 | 0.806 | 0.805 |  | 0.677 | 0.498 | 0.854 | 0.863 | 0.86 | 0.646 | 0.676 | 0.548 | 0.594 |  | 0.438 | 0.635 |
| Calu-6 |  |  |  |  |  |  |  |  |  |  | 1.13 | 0.99 | 0.989 | 0.887 | 0.68 | 0.932 | 0.964 | 0.981 | 0.975 | 0.939 |
| SK-LU-1 | 0.985 | 0.981 | 1.01 | 0.967 | 1.03 | 0.166 | 0.176 | 0.186 | 0.191 | 0.184 | 0.758 | 0.772 | 0.822 | 0.781 | 0.612 | 1.18 | 1.28 | 1.35 | 1.1 | 1.04 |
| PC-3 [JPC-3] | 1.14 | 1.15 |  | 0.951 | 1.02 | 0.998 | 0.976 | 0.884 | 0.975 | 0.976 | 0.439 | 0.471 |  | 0.447 | 0.465 | 1.01 | 0.968 | 0.954 | 1 | 0.987 |
| EMC-BAC-2 | 0.406 | 0.422 | 0.522 | 0.331 | 0.352 | 0.355 | 0.367 | 0.378 | 0.317 | 0.315 | 0.909 | 0.899 | 0.92 | 0.732 | 0.841 | 0.87 | 0.787 | 0.777 | 0.753 | 0.813 |
| LK-2 | 0.271 | 0.32 | 0.232 | 0.265 | 0.252 | 0.211 | 0.307 | 0.322 | 0.266 | 0.287 | 0.899 | 0.873 | 1.03 | 0.884 | 0.757 | 0.265 | 0.437 | 0.341 | 0.519 | 0.619 |
